The source of these data is patent US20050197371A1, “Urea derivatives as PDGFR modulators” (Ambit Biosciences Corporation, priority 2003, published 2005).

Molecules are shown by their SMILES. A value given as a limit tells only on which side of the number the result lay.

In this assay the target is T1, PDGFRB(DKIN) (PDGFR-β) (Homo sapiens, UniProt P09619).
T1 construct: PDGFRB(DKIN)
Put plainly: Phage-display competitive binding assay, PDGFRB(DKIN). Particulars: T7 phage displaying human PDGFR-β, DKIN construct; read-out: Binding Assay: PDGFRB(DKIN). On the procedure: The term “ND” represents non-determined values.
Briefly, T7 phage displaying human PDGFR-β were incubated with an affinity matrix coated with known PDGFR-β inhibitor in the presence of various concentrations of the soluble competitor molecules.
Take `CC(C)(C)c1cc(NC(=O)Nc2ccc(OCc3ccccc3)cc2)on1` [Compound G30]: the Kd is below 100 nM.

For `CC(C)(C)c1cc(NC(=O)Nc2ccc(OCc3ccccc3)cc2)no1` [Compound G31], the Kd was below 100 nM.

`C=CCOc1ccc(NC(=O)Nc2cc(C(C)(C)C)no2)cc1` [Compound G32]: the Kd was below 100 nM.

For `CC(C)Oc1ccc(NC(=O)Nc2cc(C(C)(C)C)no2)cc1` [Compound G33], the Kd was below 100 nM.

As to `CC(C)(C)c1cc(NC(=O)Nc2ccc(OCc3ccc(Cl)cc3)cc2)no1` [Compound G34], the Kd is below 100 nM.

Turning to `CC(C)(C)c1cc(NC(=O)Nc2ccc(OCc3ccc(F)cc3)cc2)no1` [Compound G35], the Kd was below 100 nM.

For `CC(C)(C)c1cc(NC(=O)Nc2ccc(OCC3CC3)cc2)no1` [Compound G37], the Kd is below 100 nM.

With `Cc1ccc(-n2nc(C(C)(C)C)cc2NC(=O)Nc2ccc(OCCN3CCOC(CO)C3)c3ccccc23)cc1` (stereo not drawn) [Compound G38], the Kd lay in the range of 100 to 1000 nM.

Regarding `CC(C)(C)c1cc(NC(=O)Nc2ccc(OCC3CCC3)cc2)no1` [Compound G39], the Kd was below 100 nM.

As to `CC(C)(C)c1cc(NC(=O)Nc2ccc(OCCN3CCOCC3)cc2)no1` [Compound G40], the Kd was in the range of 1000 to 10000 nM.

For the compound `CC1CN(CCOc2ccc(NC(=O)Nc3cc(C(C)(C)C)on3)cc2)CC(C)O1` (stereo not drawn) [Compound G42], the Kd lay within 100 to 1000 nM.

In the case of `CC1CCCN(CCOc2ccc(NC(=O)Nc3cc(C(C)(C)C)on3)cc2)C1` (stereo not drawn) [Compound G44], the Kd is above 10000 nM.

As to `CC1CN(CCOc2ccc(NC(=O)Nc3cc(C(C)(C)C)on3)cc2)CCN1` (stereo not drawn) [Compound G46], the Kd fell in the range of 1000 to 10000 nM.

Consider `CC(C)(C)c1cc(NC(=O)Nc2ccc(OCCN3CCC(O)CC3)cc2)no1` [Compound G48], for which the Kd lay in the range of 1000 to 10000 nM.

On to `CC(C)(C)c1cc(NC(=O)Nc2ccc(OCCN3CCSCC3)cc2)no1` [Compound G53], for which the Kd was in the range of 100 to 1000 nM.

As for `CC(C)(C)c1cc(NC(=O)Nc2ccc(OCc3ccc4nonc4c3)cc2)no1` [Compound G55], the Kd fell in the range of 100 to 1000 nM.

Turning to `CC(C)(C)c1cc(NC(=O)Nc2ccc(OCc3ccc(-c4ccccc4)cc3)cc2)no1` [Compound G56], the Kd is below 100 nM.

Turning to `Cn1nc(C(C)(C)C)cc1NC(=O)Nc1ccc(OCc2ccccc2)cc1` [Compound H2], the Kd fell in the range of 100 to 1000 nM.

For `Cc1cc(NC(=O)Nc2ccc(OCc3ccccc3)cc2)n(-c2ccccc2)n1` [Compound H4], the Kd was 1000 to 10000 nM.

Take `Cn1nc(C2CC2)cc1NC(=O)Nc1ccc(OCc2ccccc2)cc1` [Compound H7]: the Kd is above 10000 nM.

Regarding `O=C(Nc1ccc(OCc2ccccc2)cc1)Nc1cc(C2CC2)nn1-c1ccccc1` [Compound H8], the Kd lay within 100 to 1000 nM.

For `Cc1ccc(-n2nc(C(C)(C)C)cc2NC(=O)Nc2cc(C(C)(C)C)on2)cc1` [Compound H11], the Kd fell in the range of 1000 to 10000 nM.

Turning to `Cc1ccc(-n2nc(C(C)(C)C)cc2NC(=O)Nc2ccc(Br)cc2C(F)(F)F)cc1` [Compound H13], the Kd lay in the range of 1000 to 10000 nM.

For the compound `Cc1ccc(-n2nc(C(C)(C)C)cc2NC(=O)Nc2ccc(Cl)cc2)cc1` [Compound H14], the Kd lay in the range of 100 to 1000 nM.

With `CN(Cc1cccc([N+](=O)[O-])c1)C(=O)Nc1cc(C(C)(C)C)on1` [Compound J3], the Kd lay within 100 to 1000 nM.

With `COc1ccc(N(C)C(=O)N(C)c2cc(C(C)(C)C)no2)cc1` [Compound J8], the Kd was above 10000 nM.

`COc1ccc(N(C)C(=O)Nc2cc(C(C)(C)C)on2)cc1` [Compound J10]: the Kd was below 100 nM.

Turning to `CCOC(=O)NN(C(=O)Nc1cc(C(C)(C)C)on1)c1ccc(OC)cc1` [Compound J13], the Kd was above 10000 nM.

Take `COc1ccc(N(N)C(=O)Nc2cc(C(C)(C)C)on2)cc1` [Compound J14]: the Kd was above 10000 nM.

`CC(C)(C)c1cc(NC(=O)Nc2ccc(OCCN3CCOCC3)c3ccccc23)no1` [Compound K1]: the Kd was in the range of 100 to 1000 nM.

Take `CC(C)(C)c1cc(NC(=O)Nc2ccc(NC(=O)c3cn4cc(Cl)ccc4n3)cc2)no1` [Compound N3]: the Kd was below 100 nM.

As for `CC(C)(C)c1cc(NC(=O)Nc2ccc(NC(=O)c3cccc(Cl)n3)cc2)no1` [Compound N4], the Kd is below 100 nM.

For the compound `Cn1nc(-c2ccccc2)c2cc(C(=O)Nc3ccc(NC(=O)Nc4cc(C(C)(C)C)[nH]n4)cc3)[nH]c21` [Compound N5], the Kd lay in the range of 100 to 1000 nM.

`CC(C)(C)c1cc(NC(=O)Nc2ccc(NC(=O)c3ncccc3C(N)=O)cc2)n[nH]1` [Compound N6]: the Kd fell in the range of 100 to 1000 nM.

With `CC(C)(C)c1cc(NC(=O)Nc2ccc(NC(=O)c3cc([N+](=O)[O-])ccn3)cc2)no1` [Compound N7], the Kd is below 100 nM.

Take `CC(C)(C)c1cc(NC(=O)Nc2ccc(NC(=O)c3cccc(F)n3)cc2)no1` [Compound N8]: the Kd was below 100 nM.

`CC(C)(C)c1cc(NC(=O)Nc2ccc(NC(=O)c3cn4nc(Cl)ccc4n3)cc2)no1` [Compound N9]: the Kd is below 100 nM.

On to `Cn1nc(C(C)(C)C)cc1C(=O)Nc1ccc(NC(=O)Nc2cc(C(C)(C)C)on2)cc1` [Compound N10], for which the Kd fell in the range of 100 to 1000 nM.

With `Cn1nc(-c2ccccc2)c(C(=O)Nc2ccc(NC(=O)Nc3cc(C(C)(C)C)on3)cc2)c1Cl` [Compound N11], the Kd is above 10000 nM.

On to `COC(=O)c1ccc(C(=O)Nc2ccc(NC(=O)Nc3cc(C(C)(C)C)on3)cc2)nc1` [Compound N12], for which the Kd fell in the range of 100 to 1000 nM.

On to `CC(C)(C)c1cc(NC(=O)Nc2ccc(NC(=O)C3=NCC=N3)cc2)no1` [Compound N13], for which the Kd was below 100 nM.

Consider `CC(C)(C)c1cc(NC(=O)Nc2ccc(NC(=O)c3csnn3)cc2)no1` [Compound N14], for which the Kd lay within 100 to 1000 nM.

In the case of `Cc1nc(C(=O)Nc2ccc(NC(=O)Nc3cc(C(C)(C)C)on3)cc2)nn1-c1cc(Cl)cc(Cl)c1` [Compound N15], the Kd was in the range of 100 to 1000 nM.

Regarding `CC(C)(C)c1cc(NC(=O)Nc2ccc(NC(=O)c3csc(-c4ccncc4)n3)cc2)no1` [Compound N16], the Kd was below 100 nM.

For `CC(C)(C)c1cc(NC(=O)Nc2ccc(NC(=O)c3cc4cc(Br)ccc4s3)cc2)no1` [Compound N17], the Kd was below 100 nM.

For `Cc1nnsc1C(=O)Nc1ccc(NC(=O)Nc2cc(C(C)(C)C)on2)cc1` [Compound N18], the Kd lay in the range of 100 to 1000 nM.

As for `CC(C)(C)c1cc(NC(=O)Nc2ccc(NC(=O)c3c[nH]c(=O)nc3-c3ccncc3)cc2)no1` [Compound N19], the Kd is 1000 to 10000 nM.

Regarding `Cn1cc(C(=O)Nc2ccc(NC(=O)Nc3cc(C(C)(C)C)on3)cc2)c(C(F)(F)F)n1` [Compound N20], the Kd fell in the range of 100 to 1000 nM.

For `COc1nc(C)cc(C)c1C(=O)Nc1ccc(NC(=O)Nc2cc(C(C)(C)C)on2)cc1` [Compound N22], the Kd fell in the range of 100 to 1000 nM.

For the compound `CC(C)(C)c1cc(NC(=O)Nc2ccc(NC(=O)c3ccccc3Cl)cc2)no1` [Compound N23], the Kd is below 100 nM.

As to `CC(C)(C)c1cc(NC(=O)Nc2ccc(NC(=O)c3cccc(Br)c3)cc2)no1` [Compound N24], the Kd lay in the range of 1000 to 10000 nM.

`CC(C)(C)c1cc(NC(=O)Nc2ccc(NC(=O)c3cccc(OC(F)F)c3)cc2)no1` [Compound N25]: the Kd was 100 to 1000 nM.

As to `CC(C)(C)c1cc(NC(=O)Nc2ccc(NC(=O)c3ccc4ccccc4c3)cc2)no1` [Compound N28], the Kd was below 100 nM.

With `CC(C)(C)c1cc(NC(=O)Nc2ccc(NC(=O)c3cc(Cl)cc(Cl)c3)cc2)no1` [Compound N29], the Kd is 100 to 1000 nM.

For `CCc1ccc(C(=O)Nc2ccc(NC(=O)Nc3cc(C(C)(C)C)on3)cc2)cc1` [Compound N32], the Kd is below 100 nM.

As for `CC(C)(C)c1cc(NC(=O)Nc2ccc(NC(=O)c3ccccc3)cc2)no1` [Compound N34], the Kd is below 100 nM.

On to `CC(C)(C)c1cc(NC(=O)Nc2ccc(NC(=O)Cc3ccccc3)cc2)no1` [Compound N35], for which the Kd is 100 to 1000 nM.

Take `CC(C)(C)c1cc(NC(=O)Nc2ccc(NC(=O)c3c(F)cccc3F)cc2)no1` [Compound N37]: the Kd is 1000 to 10000 nM.

Regarding `CC(C)(C)c1cc(NC(=O)Nc2ccc(NC(=O)Cc3ccc(-c4ccccc4)cc3)cc2)no1` [Compound N38], the Kd fell in the range of 100 to 1000 nM.

Turning to `Cc1[nH]c(C(=O)Nc2ccc(NC(=O)Nc3cc(C(C)(C)C)on3)cc2)c(C)c1CCC(=O)O` [Compound N39], the Kd was below 100 nM.

`CC(C)(C)c1cc(NC(=O)Nc2ccc(NC(=O)/C=C/c3ccccc3Cl)cc2)no1` [Compound N40]: the Kd was 100 to 1000 nM.

With `Cc1cccnc1C(=O)Nc1ccc(NC(=O)Nc2cc(C(C)(C)C)on2)cc1` [Compound N41], the Kd was below 100 nM.

For the compound `CC(C)(C)c1cc(NC(=O)Nc2ccc(NC(=O)C(N)Cc3ccccc3F)cc2)no1` (stereo not drawn) [Compound N42], the Kd lay in the range of 100 to 1000 nM.

As for `CC(=O)c1c[nH]c(C(=O)Nc2ccc(NC(=O)Nc3cc(C(C)(C)C)on3)cc2)c1` [Compound N43], the Kd is below 100 nM.

As for `CC(C)(C)c1cc(NC(=O)Nc2ccc(NC(=O)CC(N)c3ccccc3Cl)cc2)no1` (stereo not drawn) [Compound N44], the Kd lay within 1000 to 10000 nM.

Regarding `CC(C)(C)c1cc(NC(=O)Nc2ccc(NC(=O)c3cnn(-c4cccc(Cl)c4)c3Br)cc2)no1` [Compound N45], the Kd fell in the range of 100 to 1000 nM.

Consider `COc1cc(OC)nc(Oc2ccccc2C(=O)Nc2ccc(NC(=O)Nc3cc(C(C)(C)C)on3)cc2)n1` [Compound N47], for which the Kd lay in the range of 100 to 1000 nM.

In the case of `COc1cc(OC)nc(Nc2cccc(C(=O)Nc3ccc(NC(=O)Nc4cc(C(C)(C)C)on4)cc3)c2)n1` [Compound N49], the Kd is 100 to 1000 nM.

As to `COc1ccnc(Nc2ccc(C(=O)Nc3ccc(NC(=O)Nc4cc(C(C)(C)C)on4)cc3)cc2)n1` [Compound N51], the Kd was below 100 nM.

In the case of `COc1cc(OC)nc(N(C)c2cccc(C(=O)Nc3ccc(NC(=O)Nc4ccon4)cc3)c2)n1` [Compound N53], the Kd was 100 to 1000 nM.

Consider `CC(C)(C)c1cc(NC(=O)Nc2ccc(NC(=O)c3cc(N4CCOCC4)nc(N4CCOCC4)n3)cc2)no1` [Compound N54], for which the Kd is below 100 nM.

Take `Cc1nc(C(=O)Nc2ccc(NC(=O)Nc3cc(C(C)(C)C)on3)cc2)c(C(F)(F)F)o1` [Compound N55]: the Kd was in the range of 100 to 1000 nM.
